The series is described as follows: In vitro release experiment (Pt by atomic absorption). In kind it is physicochemical. Conditions: when no interaction with gelatin was created. On the procedure:
The thus resulting gelatin sheet of 2×2 cm following impregnation of the aqueous CDDP solution (water content: 97%) was placed in 10 ml of a phosphate buffer (PBS, pH 7.4) containing 0.1% Tween80, and shaken in a 37° C. incubator at 60 rpm/min. At a predetermined time, 5 ml of the supernatant was taken out. The same amount of 0.1% Tween80/PBS was immediately added to the sheet and put back in the incubator. Pt concentration in the samples was quantitatively determined three times using an atomic absorption photometer (Hitachi Model Z-8000, Hitachi, Ltd., Tokyo).

Turning to `[NH2][Pt]([NH2])([Cl])[Cl]` [CDDP, cisplatin], the “time until CDDP is entirely released” value is “approximately 3 hrs”.

(Values after patent US8771734B2, “Sustained-release hydrogel preparation” (Medgel Corporation, priority 2003, dated 2014).)
